According to patent US20050203011A1, “Mitigating symptoms and behaviors of substance abuse by modulating GDNF or BDNF pathway activity” (The Regents of the University of California, priority 2003, published 2005):

What was measured:
GDNF [1] = assay: GDNF secretion into medium of SHSY5Y cells (ELISA); format: cell-based, human; conditions: 10 μM
Description: GDNF secretion in the medium was detected using GDNF Emax Immunoassay System according to (Balkowiec and Katz, 2000). GDNF concentration was interpolated from the standard curves (linear range of 15.6-1000 pg/ml).

Trk = Trk phosphorylation in SHSY5Y cells; format: cell-based, human; conditions: 10 μM ibogaine 3 hours
Protocol: Expression of GDNF and control Actin were analyzed by RT-PCR (n=4). […] GDNF in the media was detected by an ELISA assay. Histogram depicts the mean±SD of GDNF secretion in 3 experiments. […] Ret was immunoprecipitated with anti-Ret antibodies followed by Western blot analysis with anti GFRα1 antibodies. The levels of GFRα1 in the homogenates were determined by Western blot analysis (n=3). […] Ret was immunoprecipitated followed by Western blot analysis with anti-phospho tyrosine or anti-Ret antibodies (n=3). […] Trk phosphorylation was analyzed by Western blot analysis with anti-phospho-Trk antibodies. The levels of TrkB were also determined by Western blot analysis (n=3). Panel F: Cells were pre-incubated with 0.3 unit/ml PI-PLC for 1 h (lanes 3 and 4). […] Ret phosphorylation was determined as described above (n=4). […] Treatment with 50 ng/ml GDNF was used as a positive control (lane 5). The cells were lysed and Ret phosphorylation was analyzed as described above (n=3).

DBA mice = assay: Conditioned place preference test (CPP); format: in vivo, mouse; conditions: ibogaine 40 mg/kg i.p. during CPP acquisition, before expression, or both
Protocol: The CPP apparatus (Med Associates) consisted of two visually distinctive conditioning compartments connected by a smaller center compartment. The CPP procedure consisted of three phases: preconditioning (Day 1), conditioning (Days 2-9), and post-conditioning (Day 10). On Day 1, mice were placed into the center compartment and allowed free access to both conditioning compartments for 30 minutes. […] Mice were given access to one conditioning chamber for 5 minutes immediately after injection or 3 h after injection. […] Control subjects received saline in both conditioning chambers. […] Ethanol treatment was followed by placement within one conditioning chamber, alternated with saline treatment and placement into the other conditioning chamber, as described above. On Day 10, animals were tested for CPP by allowing free access to both conditioning compartments for 30 minutes. Photocell counts provided a measure of locomotor activity as well as time spent in each compartment

GDNF [2] = assay: GDNF expression in SHSY5Y cells (RT-PCR); format: cell-based, human
Protocol: SHSY5Y human neuroblastoma cells were grown in Dulbecco's modified Eagle's medium (DMEM) containing 10% fetal bovine serum (FBS) plus 100 units/ml penicillin and 100 μg/ml streptomycin. Prior to experiments, the medium was replaced with DMEM containing 1% FBS.
Total RNA was isolated using Trizol reagent and reverse transcribed using Reverse Transcription System kit with the oligo (dT)15 primer at 42ûC for 30 minutes. GDNF, Actin or GPDH expressions were analyzed by RT-PCR. The GDNF primers were based on the coding frame of the human GDNF gene: upstream, 5′-TGCCAGAGGATTATCCTGATCAGTTCG ATG3′ (SEQ ID NO: 1); and downstream, 5′-TTGTCGTACGTTGTCTCAGCTGCATCGCAA-3′ (SEQ ID NO:2). The Actin primers were based on the human Actin gene: upstream, 5′-TCATGAAGTGTGACGTTGACATC-3′ (SEQ ID NO:3); and downstream, 5′-AGAAGCATTTGCGGTGGACGATG-3′ (SEQ ID NO:4). The GPDH primers were based on the rat GPDH gene: upstream, 5′-TGAAGGTCGGTGTCAACGGATTTGGC-3′ (SEQ ID NO:5); and downstream, 5′-CATGTAGGCCATGAGGTCCACCAC-3′ (SEQ ID NO:6). […]
After completion of PCR, 10 μl of each product was separated by 1.8% agarose gel in Tris/acetic acid/EDTA buffer with 0.25N^og/ml ethidium bromide, photographed by Eagle Eye II (Stratagene), and quantified by NIH Image 1.61.

rats [3] = assay: Ethanol operant self-administration after systemic ibogaine; format: in vivo, rat; conditions: 40 mg/kg i.p., 3 hours prior to session
Description: Rats were water restricted, and then trained to lever press for a 10 S/10 E reinforcer solution in 3 overnight sessions. On the 4th day, rats were allowed ad libitum access to water in the home cage, and were transferred to 1-hour daily sessions wherein responses were reinforced with 5 S/10 E on a fixed-ratio 3 (FR3) schedule. Sucrose was phased out of the reinforcer solution over the next 7 days until the solution consisted of 10 E only. Experimental manipulations began after 30 sessions when stable 10 E intake of >0.4 g/kg ethanol was attained.

Male Long Evans rats = assay: Ethanol and sucrose self-administration in the two-bottle preference test; format: in vivo, rat; conditions: ibogaine i.p.
Description: Male Long Evans rats were allowed continuous access to two bottles, one containing 10% ethanol (10 E) in tap water and the other containing tap water. […] Each subject received each dose, with one injection per week. Next, subjects were exposed to 2 bottles, one containing 10% sucrose (10 S) in tap water and the other containing tap water.

rats [4] = assay: VTA microinjection of ibogaine, ethanol operant self-administration; format: in vivo, rat
Protocol: After ethanol self-administration was established as described above, subjects attained a mean daily intake of ethanol of 0.62±0.07 g/kg. Bilateral guide cannula (26 gauge, Plastics One) were implanted into the VTA (5.6 mm posterior to bregma, 1.0 mm mediolateral, 8.0 mm ventral to the skull surface). After 7 to 10 days recovery, sham injections were conducted prior to ethanol self-administration sessions to habituate subjects to the microinjection procedure. […] Injection cannulae were left in place for an additional 2 minutes to allow for diffusion of the drug. Three, 24 and 48 hours post injection, rats were placed into the self-administration chambers for a 1-hour self-administration session.

12-methoxyibogamine [ibogaine]
GDNF levels in the media (secretion) (GDNF [1]): accumulated in the media in a time-dependent manner
phosphorylation state of Trk (Trk): no change
rewarding properties of ethanol (ethanol-induced CPP) (DBA mice): not altered
duration of increase in GDNF expression (GDNF [2]): up to 12 hours
GDNF expression (GDNF [2]; 10 μM, dose- and time-dependent): increase
responding at the ethanol-paired lever (rats [3]): decreased
ethanol intake (Male Long Evans rats; continuous access to ethanol in home cage, measured 24 hours after injection): reduced
preference for ethanol (Male Long Evans rats; continuous access, 24 hours after injection): reduced
lever responding for ethanol (rats [4]; intra-VTA 0.1 μM, any tested time point): did not differ from responding following vehicle
lever presses for ethanol, return to baseline (rats [4]; intra-VTA 10 μM): did not return to baseline levels within 48 hours
lever responding for ethanol (rats [4]; intra-VTA 10 μM, 3, 24 and 48 hours, vs vehicle): significantly reduced responding at all time points
ethanol-paired lever pressing (rats [4]; intra-VTA 0.1, 1.0 and 10.0 μM/0.5 μl, 3 hours before session, dose-dependent): significantly decreased
